Data published in patent publication US4225619A, “Substituted fluoracylresorcinols” (Boehringer Ingelheim GmBH, priority 1976, dated 1980).
≈ marks a conversion by molar mass, not a printed value.

Assays:
Assay type in all cases: cell-based
[1] = test system: Staphylococcus aureus SG 511; assay: Agar diffusion test (hole-test); settings: SG511, 18-20 hours at 37° C., read-out: MIC, A.D.T., Staphylococcus aureus SG 511
Protocol: (§1) The inhibitory effect on bacteria and fungi was examined by the serial dilution test and the agar diffusion test (hole-test). As bacteria were used: Staphylococcus aureus SG 511, Streptococcus Aronson, Streptococcus pyogenes At CC 86 68; as fungi: Candida albicans AT CC 10231, Trichophyton mentagrophytes AT CC 9129 and Aspergillus niger.
1. Meat extract agar: for St. aureus SG 511
(§2) The age of the primary cultures is 24 hours for bacteria and 14 days for fungi. The standardization of the suspension of microorganisms is effected using a photometer according to Eppendorf (test tube .phi.14 mm, filter 546 nm) and a suspension for comparison consisting of barium sulfate, this suspension being created by addition of 3.0 ml of 1% barium chloride solution to 97 ml of 1% sulfuric acid. After the standardization St. aureus SG 511 was diluted 1:1000 and Sc. pyogenes and Aronson 1:100 by means of sodium chloride solution. The fungi were used in an undiluted state.
(§3) 40 mgm of the substance were put into a 10 ml measuring flask and filled up to the mark with the solvent (corresponds to a dilution of 1:250=4000 μg/ml).
(§4) The dilutions to the concentrations under test were effected with distilled water or the respective solvent.
(§5) 19 ml of the nutrient medium were filled into sterile Petri dishes of a diameter of 8 cm and dried. Subsequently the agar plates were charged with 4 ml of seed agar. 100 ml of seed agar contain 1.25 ml of the suspension of microorganisms, an agar plate thus containing 0.05 ml of the suspension of microorganisms. After solidification of the agar, 5 holes of a diameter of 5 mm were punched into the plates and filled with 0.05 ml of the correspondingly concentrated substance solution.
(§6) Control tests merely using the solvent are to be carried out simultaneously.
(§7) Bacteria were incubated at 37° C. for 18-20 hours and fungi at 27° C. for 7 days.
(§8) The diameter of the area of inhibition in mm was measured after having deducted the diameter of the hole.

[2] = test system: Staphylococcus aureus SG 511; assay: Serial dilution test; settings: Staphylococcus aureus, SG511, 18-20 hours at 37° C., read-out: MIC, S.D.T., Staphylococcus aureus SG 511
Protocol: as §1
1. Meat extract broth: for St. aureus SG 511
(§9) The age of the primary cultures is 24 hours for bacteria and 14 days for fungi. The standardization of the suspension of microorganisms is effected using a photometer according to Eppendorf (test tube .phi.14 mm, filter 546 nm) and a suspension for comparison consisting of barium sulfate, this suspension being created by adition of 3.0 ml of 1% barium chloride solution to 97 ml of 1% sulfuric acid. After the standardization the bacteria were further diluted to a concentration of 1:1000 by means of sodium chloride solution, the fungi were used in an undiluted state.
(§10) 40 mgm of the substance were put into a 10 ml measuring flask and filled up to the mark with the solvent (corresponds to a dilution of 1:250=4000 μg/ml). The further dilution series was standardized with distilled water or the respective solvent and the following substance concentrations were prepared: 1000; 250; 62.5 μg/ml.
(§11) The tubes were filled with 4.9 ml of the corresponding liquid nutrient medium. Then 0.1 ml of the substance dilution prepared above was added to each tube, so that the mentioned final concentrations were present. Finally each tube was inoculated with 0.1 ml of the standardized suspension of microorganisms. Control tests merely using the solvent are to be carried out simultaneously.
as §7
(§12) The measurement is carried out macroscopically defining the minimal inhibitory concentration (the lowest still microbiostatically effective concentration).

Streptococcus Aronson [3] = assay: Agar diffusion test (hole-test); settings: 18-20 hours at 37° C., read-out: MIC, A.D.T., Streptococcus Aronson
Protocol: as §1
(§13) 2. Glucose agar: for Sc. Aronson and St. pyogenes Recipe see meat extract agar. After sterilization 1 weight percent of glucose is added as a sterile 50% solution.
as §2, §3, §4, §5, §6, §7, §8

[4] = test system: Streptococcus pyogenes At CC 86 68; assay: Agar diffusion test (hole-test); settings: ATCC8668, 18-20 hours at 37° C., read-out: MIC, A.D.T., Streptococcus pyogenes
Protocol: as §1, §13, §2, §3, §4, §5, §6, §7, §8

Streptococcus Aronson [5] = assay: Serial dilution test; settings: Streptococcus, 18-20 hours at 37° C., read-out: MIC, S.D.T., Streptococcus Aronson
Protocol: as §1
(§14) 2. Glucose broth: for Sc. Aronson and St. pyogenes Recipe see meat extract broth. After sterilization 1 weight percent of glucose is added as a sterile 50% solution.
as §9, §10, §11, §7, §12

[6] = test system: Streptococcus pyogenes At CC 86 68; assay: Serial dilution test; settings: Streptococcus pyogenes, ATCC8668, 18-20 hours at 37° C., read-out: MIC, S.D.T., Streptococcus pyogenes
Protocol: as §1, §14, §9, §10, §11, §7, §12

Corynebacterium acnes = assay: Serial dilution test for Corynebacterium acnes; settings: for MIC: Cutibacterium acnes, 37° C. for 48 hours, read-out: MIC, S.D.T., Corynebacterium acnes; for Concentration with reduced growth (value in brackets), S.D.T., Corynebacterium acnes: reduced growth at this concentration
Protocol: Serial dilution test for Corynebacterium acnes and Pityrosporum ovale Nutrient medium
For Corynebacterium acnes: thioglycolate-broth for Pityrosporum ovale: Littmann's broth, 5 ml per tube.
Suspension of microorganisms in 0.9% sodium chloride solution, standardized using a photometer according to Eppendorf by means of a suspension for comparison consisting of barium sulfate, for Corynebacterium acnes in a dilution of 1:100, for Pityrosporum ovale in an undiluted state. 0.1 ml of the suspensions was used per test tube. Dimethyl sulfoxide served as a solvent for the substances.
The suspension with Corynebacteria acnes was incubated at 37° C. for 48 hours, the suspension of Pityrosporum ovale at 27° C. for 7 days. The reading was effected by macroscopic evaluation of the growth of microorganisms and registration of the minimal inhibitory concentration.

HeLa-cell culture = assay: Inhibition of HeLa cell cultures; settings: Homo sapiens, 72 h, 37° C. for 3 days, 5% carbon dioxide; for IC50: read-out: ED50, HeLa cell culture; for minimal effective concentration: read-out: Minimal inhibitory concentration, HeLa cell culture
Protocol: Measurement of the inhibition of cell cultures
HeLa-cell culture was treated with trypsin and adjusted to a cell number of 150,000 cells/ml of fresh medium. The substance was always dissolved in the same quantity of dimethyl sulfoxide and then further diluted with growth medium. 0.1 ml of the substance-dilutions were added to each well of microtiter plates and then 0.2 ml of cell suspension were added (4 wells per dilution). Several growth controls containing 0.1 ml of growth medium instead of 0.1 ml of substance dilution were put up. After careful mixing, the cultures were incubated at 37° C. for 3 days in a 5% carbon dioxide atmosphere. The reading was effected in comparison with these controls. The results were given as the percentage of the deficiency and degeneration compared to the growth control. […] The statements are referred to μg of substance per ml of total medium.

Structure (SMILES)	MIC [1] [µg/mL]	MIC [2] [µg/mL]	MIC (Streptococcus Aronson [3]) [µg/mL]	MIC [4] [µg/mL]	MIC (Streptococcus Aronson [5]) [µg/mL]	MIC [6] [µg/mL]	MIC (Corynebacterium acnes) [µg/mL]	IC50 (HeLa-cell culture) [µg/mL]	minimal effective concentration (HeLa-cell culture) [µg/mL]	Concentration with reduced growth (value in brackets), S.D.T., Corynebacterium acnes (Corynebacterium acnes) [µg/mL]
Cc1c(O)c(Cc2cc(C(=O)C(F)(F)F)c(O)c(C)c2O)cc(C(=O)C(F)(F)F)c1O [S, Methylene-bis-(2,4-dihydroxy-3-methyl-5-trifluoro-acetyl)-benzene]	≤ 15.6	1.25 (≈ 2.76 µM)	≤ 15.6	≤ 15.6	1.25 (≈ 2.76 µM)	1.25 (≈ 2.76 µM)	0.31 (≈ 0.685 µM)	3.8 (≈ 8.4 µM)	≤ 0.78	
O=C(c1ccc(O)c(C2CCCCCCCCCCC2)c1O)C(F)(F)F [L, 2,4-Dihydroxy-3-cyclododecyl-trifluoroacetophenone]	62.5 (≈ 168 µM)	0.31 (≈ 0.832 µM)	≤ 15.6	62.5 (≈ 168 µM)	0.31 (≈ 0.832 µM)	0.08 (≈ 0.215 µM)	1.25 (≈ 3.36 µM)			0.31
CC1CC(C)CC(c2cc(C(=O)C(F)(F)F)c(O)cc2O)C1 (centres unmarked) [I, 2,4-Dihydroxy-5-(3',5'-dimethyl)-cyclohexyl-tri-fluoroacetophenone]	≤ 15.6	0.31 (≈ 0.98 µM)	≤ 15.6	≤ 15.6	0.08 (≈ 0.253 µM)	0.31 (≈ 0.98 µM)	0.08 (≈ 0.253 µM)			

Further lines, with some results ahead:

MIC [1] [µg/mL]	MIC [2] [µg/mL]	MIC (Streptococcus Aronson [3]) [µg/mL]	MIC [4] [µg/mL]	MIC (Streptococcus Aronson [5]) [µg/mL]	MIC [6] [µg/mL]	MIC (Corynebacterium acnes) [µg/mL]	IC50 (HeLa-cell culture) [µg/mL]	Structure (SMILES)	minimal effective concentration (HeLa-cell culture) [µg/mL]	Concentration with reduced growth (value in brackets), S.D.T., Corynebacterium acnes (Corynebacterium acnes) [µg/mL]
≤ 15.6	0.31 (≈ 1.12 µM)	≤ 15.6	≤ 15.6	1.25 (≈ 4.52 µM)	0.31 (≈ 1.12 µM)	1.25 (≈ 4.52 µM)	5.8 (≈ 21 µM)	CC(C)CCc1cc(C(=O)C(F)(F)F)c(O)cc1O [G, 2,4-Dihydroxy-5-iso-pentyl-trifluoroacetophenone]	0.78	
≤ 15.6	0.31 (≈ 1.03 µM)	≤ 15.6	≤ 15.6	0.31 (≈ 1.03 µM)	0.08 (≈ 0.265 µM)	1.25 (≈ 4.14 µM)		O=C(c1ccc(O)c(C2CCCCCC2)c1O)C(F)(F)F [O, 2,4-Dihydroxy-3-cycloheptyl-trifluoroacetophenone]		0.31
≤ 15.6	1.25 (≈ 4.31 µM)	≤ 15.6	≤ 15.6	1.25 (≈ 4.31 µM)	0.31 (≈ 1.07 µM)	0.08 (≈ 0.276 µM)	2.27 (≈ 7.82 µM)	CCCCC(C)c1c(O)ccc(C(=O)C(F)(F)F)c1O (centres unmarked) [K]	0.78	
